Experimental data from PMC9226124, “Macrocycle-stabilization of its interaction with 14-3-3 increases plasma membrane localization and activity of CFTR” (Nature Communications, 2022).
“And” between values parts separate entries of the source, which are not always exact repeats. Equal entries are not always repeated.

Molecular target: T1, 3HA-tagged F508del-CFTR in BHK cells (Homo sapiens, UniProt P13569, DEL508-508)
T1 construct: expressed in transfected cells; host or cells: baby hamster kidney (BHK) cells (Carlile et al. 2007)
T1 sequence (P13569 with tags, fused parts or gaps DEL508-508): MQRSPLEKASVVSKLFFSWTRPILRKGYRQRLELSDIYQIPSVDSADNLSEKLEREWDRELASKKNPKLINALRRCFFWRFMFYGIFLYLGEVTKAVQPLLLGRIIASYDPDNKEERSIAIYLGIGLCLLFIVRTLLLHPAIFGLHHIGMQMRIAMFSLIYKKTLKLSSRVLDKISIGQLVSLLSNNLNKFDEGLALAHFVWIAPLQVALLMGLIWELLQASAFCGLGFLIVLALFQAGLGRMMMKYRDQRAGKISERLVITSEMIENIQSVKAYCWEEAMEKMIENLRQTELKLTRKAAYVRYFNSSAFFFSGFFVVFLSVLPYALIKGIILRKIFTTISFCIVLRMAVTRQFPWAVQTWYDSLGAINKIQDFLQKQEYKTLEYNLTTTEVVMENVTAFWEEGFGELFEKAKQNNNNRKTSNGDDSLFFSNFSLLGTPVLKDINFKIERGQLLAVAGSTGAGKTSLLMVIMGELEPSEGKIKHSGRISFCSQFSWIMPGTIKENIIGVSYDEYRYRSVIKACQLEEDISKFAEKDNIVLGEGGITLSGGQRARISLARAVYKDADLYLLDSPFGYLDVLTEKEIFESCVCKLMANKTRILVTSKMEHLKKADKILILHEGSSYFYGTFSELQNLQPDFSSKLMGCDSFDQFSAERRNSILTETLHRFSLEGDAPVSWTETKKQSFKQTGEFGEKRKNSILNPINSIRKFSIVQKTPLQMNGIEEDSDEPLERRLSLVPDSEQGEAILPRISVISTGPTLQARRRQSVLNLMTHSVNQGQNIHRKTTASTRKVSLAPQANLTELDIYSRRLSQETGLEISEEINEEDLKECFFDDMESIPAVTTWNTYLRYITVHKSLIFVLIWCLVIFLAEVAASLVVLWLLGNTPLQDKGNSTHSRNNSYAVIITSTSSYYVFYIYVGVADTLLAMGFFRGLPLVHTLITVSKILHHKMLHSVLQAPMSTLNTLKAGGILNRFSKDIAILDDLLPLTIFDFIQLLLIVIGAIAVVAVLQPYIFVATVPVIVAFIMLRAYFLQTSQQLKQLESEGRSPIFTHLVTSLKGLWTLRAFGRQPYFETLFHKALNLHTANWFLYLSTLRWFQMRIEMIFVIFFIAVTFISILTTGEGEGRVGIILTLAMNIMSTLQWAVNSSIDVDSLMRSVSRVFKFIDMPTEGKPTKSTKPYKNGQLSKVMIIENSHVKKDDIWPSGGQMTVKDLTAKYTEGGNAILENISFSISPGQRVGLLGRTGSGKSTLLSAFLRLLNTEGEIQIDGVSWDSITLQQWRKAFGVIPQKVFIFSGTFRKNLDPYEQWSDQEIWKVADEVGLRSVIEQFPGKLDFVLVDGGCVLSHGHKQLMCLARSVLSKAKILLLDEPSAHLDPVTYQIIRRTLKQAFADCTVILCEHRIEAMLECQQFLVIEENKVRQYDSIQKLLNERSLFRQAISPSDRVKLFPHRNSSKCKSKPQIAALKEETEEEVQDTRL
Experiment: CFTR trafficking assay (surface expression)
Assay type: cell-based, hamster
Details: individual replicates
Description: Twelve (12) validated hit compounds from the initial screening and focused validation library were tested for their effect on F508del-CFTR trafficking. Baby hamster kidney (BHK) cells expressing 3HA-tagged F508del-CFTR were treated for 24 h with 10 μM compound. After fixation of the cells, a combination of mouse monoclonal anti-HA antibody and anti-mouse IgG conjugated with FITC was used to detect F508del-CFTR that had trafficked to the plasma membrane as described previously. […] Additionally, a fluorescence imaging plate reader (FLIPR) Membrane Potential (FMP) assay was performed. This assay measures real-time membrane potential changes associated with ion channel activation and ion transporter proteins. F508del-CFTR expressing BHK cells were incubated for 24 h with 20 μM compound before treatment with the potentiator genistein, FMP dye, and activator forskolin. The fluorescence intensity is thus a measure for the function of the CFTR protein in the plasma membrane of these cells. The F508del-CFTR corrector VX-809 (lumacaftor) and the triple combination Trikafta® were used as positive controls in this assay. […] Another cellular assay was performed with the Ussing Chamber, which detects and quantifies transport of ions across epithelial tissue. F508del-CFTR expressing cystic fibrosis epithelial (CFBE) cells were treated for 18 h with 20 μM CY007424. After forskolin and genistein stimulation, the short-circuit current of the cells was measured.
Fig. 5 Cellular activity of macrocycles stabilizing the 14-3-3/CFTR PPI. a Surface expression of 3HA-tagged F508del-CFTR in BHK cells incubated for 24 h with 10 μM compound and treated with mouse monoclonal anti-HA antibody and anti-mouse IgG conjugated with FITC (n = 4 or n = 3 biological replicates, bars represent the mean). b, c FLIPR Membrane Potential (FMP) assay of F508del-CFTR expressing BHK cells treated for 24 h with the macrocycles (b, n = 6 biological replicates, bars represent the mean) or with CY007424 and/or VX-809 or Trikafta®, with and without CFTR inhibitor INH172 (c, n = 4 biological replicates, bars represent the mean). d Using chamber experiment of F508del-CFTR expressing CFBE cells treated for 18 h with CY007424, VX-809, or Trikafta® or in combinations. CFTR activity is assayed by measurement of short-circuit current of cells after stimulation by forskolin and the potentiator genistein (n = 3 or n = 6 biological replicates, bars represent the mean). Source data are provided as a Source Data file.
The trafficking assay was performed as previously described by Carlile et al.[21]. In brief, 3HA-tagged F508del-CFTR expressing baby hamster kidney (BHK) cells (cells earlier described by Carlile et. al. 2007)[21] were seeded in 96-well plates (Corning half area, black-sided, clear bottom) at 15,000 cells per well. After 24 h incubation at 37 °C, the cells were treated with 10 μM of compound for 24 h (final DMSO concentration 1% v/v). The cells were fixated with 4% paraformaldehyde, washed with PBS, and then blocked with fetal bovine serum (5% in PBS). Mouse monoclonal anti-HA antibody (H9658 Sigma, 1:150 dilution in PBS) was incubated overnight, and, after three washes with PBS, the background fluorescence was measured in a plate reader (488 nm excitation, 510 nm emission). The secondary antibody anti-mouse IgG conjugated with FITC (F5262 Sigma, 1:100 dilution in PBS) was incubated for 1 h, the cells were washed three times with PBS and analyzed in the plate reader again. Background fluorescence was subtracted from the signal, after which the signal was normalized to the DMSO control and wt-CFTR expressing cells.

**Q.** How did the “F508del-CFTR surface expression signal (Fig5a)” value turn out when `NCCCC1NCc2ccccc2Sc2ccccc2CNC(=O)C(Cc2c[nH]c3ccccc23)NC(=O)C(Cc2ccccc2)NC1=O` (centres unmarked) [CY007345] was run?
**A.** The value was -42.2555 and -20.6074 and 61.7766 and 72.7311.

**Q.** `NCCCCC1NCc2ccccc2Sc2ccccc2CNC(=O)C(Cc2cccc(Cl)c2)NC(=O)C(Cc2ccc(O)cc2)NC1=O` (centres unmarked) [CY007288] was tested. Which “F508del-CFTR surface expression signal (Fig5a)” value did it give?
**A.** Its value is 916.74 and 800.091 and 871.094 and 781.005.
